# From patent US9322022B2, “Inhibition of DNA2 in fanconi anemia” (California Institute of Technology, priority 2013, dated 2016)
# Columns and labels:
# PD20 FANCD2−/− cells = test: Clonogenic assay for cisplatin sensitivity; assay type: cell-based, human; conditions: FANCD2−/− cells (empty vector)
# Protocol: (§1) The genetic interaction between FANCD2 and DNA2 was examined in the repair of cisplatin- or formaldehyde-induced damage. Using PD20 FANCD2^−/− cells complemented with wild-type FANCD2 or an empty vector, DNA2 was depleted using shRNA techniques (FIG. 2A). As shown, DNA2 was reduced to levels undetectable by western blotting. The cell lines were exposed to cisplatin, and a clonogenic assay was performed (FIG. 2B). […] This rescue is stronger than previously reported, consistent with lower residual DNA2 levels detected by western blotting in the knockdowns (Karanja et al., 2012, Cell Cycle, 11:3983-3996, the entire contents of which are herein incorporated by reference.)
# (§2) For acute exposure, formaldehyde (0, 40, 80, 160, 320 μM) was added for 4 h in PBS. Cells were washed in PBS and grown for 5 days. For chronic exposure, cells were continuously grown in formaldehyde (0, 30, 60, 90, 120 μM) for 6 days. To determine viability, cells were fixed and stained with crystal violet and scanned with a Licor Odyssey scanner (LiCor Biosciences). The surviving fraction was determined by comparing treated with the non-treated controls. […] Surviving fraction was determined by comparing treated with the non-treated controls.
# [1] = tested on: PD20 FANCD2−/− cells complemented with wild-type FANCD2; test: Clonogenic assay for cisplatin sensitivity; assay type: cell-based, human
# Protocol: as §1, §2
structure (smiles),measurement,setting,value
N.N.[Cl][Pt][Cl] [cisplatin],sensitivity of cells to cisplatin (clonogenic survival),PD20 FANCD2−/− cells,very sensitive
same,sensitivity of cells to cisplatin (clonogenic survival),[1],resistant
